Source: the supplement of paper PMC8671470
Counter-ions that a name gives are not always drawn.

Tests used:
Conditions in all cases: 72 h
HL-60 [1] = assay: cell viability (% survival relative to DMSO control, bortezomib = 0%); higher = less cytotoxic
Summary of the method: (§1)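 Fifteen myeloid leukaemia cell lines (10 AML, 5 CML) were seeded at a density titrated to the linear growth range. They went into 384-well plates with compounds pre-printed at 1, 10, 100, 1000 or 10000 nM in duplicate. After 72 h at 37 °C with 5% CO2, viability was read by CellTiter-Glo luminescence. Values are percent survival, with vehicle set to 100% and a 10 µM positive control to 0%, averaged over the duplicates.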

MOLM-13 [2] = assay: as above
Summary of the method: as §1

KG-1 [3] = assay: as above
Summary of the method: as §1

KCL-22 [4] = assay: as above
Summary of the method: as §1

SHI-1 [5] = assay: as above
Summary of the method: as §1

K-562 [6] = assay: as above
Summary of the method: as §1

HEL [7] = assay: as above
Summary of the method: as §1

ML-2 [8] = assay: as above
Summary of the method: as §1

KU-812 [9] = assay: as above
Summary of the method: as §1

BV-173 [10] = assay: as above
Summary of the method: as §1

Mono-Mac-6 [11] = assay: as above
Summary of the method: as §1

THP-1 [12] = assay: as above
Summary of the method: as §1

HL-60 [13] = assay: cell viability (% survival relative to DMSO control); higher = less cytotoxic
Summary of the method: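 A rescreen of the full library used HL-60 cells in RPMI 1640 with 10% FBS on 384-well plates, run in duplicate at five tenfold concentrations (1–10,000 nM). Each screen included DMSO or 100 nM of one of three metabolic inhibitors and ran 72 h at 37 °C, 5% CO2. CellTiter-Glo viability was scaled between DMSO and 10 μM proteasome-inhibitor wells. Any area under the curve comes from four-parameter log-logistic fits with drc and PharmacoGx.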

HL-60 [14] = system: HL-60
Summary of the method: (§2)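 Fifteen myeloid leukaemia lines in RPMI 1640 were treated for 72 h at 37 °C and 5% CO2 with five tenfold doses from 1 to 10,000 nM, in duplicate. ATP luminescence was normalised to vehicle and to a positive control at 10 µM, then fitted with a four-parameter log-logistic model. The IC50 came from these fits.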

NOMO-1 = system: NOMO-1
Summary of the method: as §2

MOLM-13 [15] = system: MOLM-13
Summary of the method: as §2

KG-1 [16] = system: KG-1
Summary of the method: as §2

KCL-22 [17] = system: KCL-22
Summary of the method: as §2

LAMA-84 = system: LAMA-84
Summary of the method: as §2

SHI-1 [18] = system: SHI-1
Summary of the method: as §2

K-562 [19] = system: K-562
Summary of the method: as §2

HEL [20] = system: HEL
Summary of the method: as §2

MV4-11 = system: MV4-11
Summary of the method: as §2

ML-2 [21] = system: ML-2
Summary of the method: as §2

KU-812 [22] = system: KU-812
Summary of the method: as §2

BV-173 [23] = system: BV-173
Summary of the method: as §2

Mono-Mac-6 [24] = system: Mono-Mac-6
Summary of the method: as §2

THP-1 [25] = system: THP-1
Summary of the method: as §2

CCN(CCO)CCCC(C)Nc1ccnc2cc(Cl)ccc12 (stereo not given) [Hydroxychloroquine sulfate]
cell viability [%]
Conditions	1 nM	10 nM	100 nM	1000 nM	10000 nM
BV-173 [10]	79.7	107	97.6	84.3	94.8
HEL [7]	89.5	102	99	128	98
HL-60 [1]	125	101	96.5	98.5	84.1
K-562 [6]	84.1	97.8	105	101	111
KCL-22 [4]	88.5	113	99.1	119	99.3
KG-1 [3]	95.1	108	94.6	112	114
KU-812 [9]	93	103	105	99	97
ML-2 [8]	92.7	128	92.2	106	105
MOLM-13 [2]	81	117	91.8	127	108
Mono-Mac-6 [11]	92.7	104	91.8	88.2	86.7
SHI-1 [5]	95.5	106	101	127	104
THP-1 [12]	91.5	106	102	92.2	110

cell viability [%], HL-60 [13]
Conditions	0.001 µM	0.01 µM	0.1 µM	1 µM	10 µM
co-treatment: AZD3965 100 nM	91.8	97.2	105	96.7	101
co-treatment: DMSO vehicle	92.3	98.9	101	98.9	99.8
co-treatment: GSK2194069 100 nM	97	101	111	99.5	104
co-treatment: pictilisib 100 nM	86.1	101	109	107	103

Conditions	IC50 (cell viability) [µM]
BV-173 [23]	> 10
HEL [20]	> 10
HL-60 [14]	> 10
K-562 [19]	> 10
KCL-22 [17]	> 10
KG-1 [16]	> 10
KU-812 [22]	> 10
LAMA-84	> 10
ML-2 [21]	> 10
MOLM-13 [15]	> 10
MV4-11	> 10
Mono-Mac-6 [24]	> 10
NOMO-1	> 10
SHI-1 [18]	> 10
THP-1 [25]	> 10

O=C([O-])CC(O)(C(=O)[O-])C(O)C(=O)[O-].[K+].[K+].[K+] (stereo not given) [Hydroxycitrate]
cell viability [%]
Conditions	1 nM	10 nM	100 nM	1000 nM	10000 nM
BV-173 [10]	80.2	95.7	89.1	104	105
HEL [7]	79.6	98.2	112	95.1	99.6
HL-60 [1]	55.8	96.6	92.9	75.4	103
K-562 [6]	81.6	98.8	102	110	108
KCL-22 [4]	86.5	109	104	84.7	88
KG-1 [3]	80	94.5	93.6	102	91.5
KU-812 [9]	94.4	98.4	105	97.3	92.4
ML-2 [8]	90.3	95.8	78.1	104	97
MOLM-13 [2]	68.9	104	99.4	89.5	92.5
Mono-Mac-6 [11]	87.8	86.8	98	90.6	99.5
SHI-1 [5]	80.8	112	92	100	88.6
THP-1 [12]	83.8	93.4	97.5	97.7	105

cell viability [%], HL-60 [13]
Conditions	0.001 µM	0.01 µM	0.1 µM	1 µM	10 µM
co-treatment: AZD3965 100 nM	87.2	94.9	100	106.2	97.3
co-treatment: DMSO vehicle	97.7	97.98	103.8	87.7	92.4
co-treatment: GSK2194069 100 nM	101	99.09	103	95.3	98.1
co-treatment: pictilisib 100 nM	93.7	90.3	108	97.3	94.4

Conditions	IC50 (cell viability) [µM]
BV-173 [23]	> 10
HEL [20]	> 10
HL-60 [14]	> 10
K-562 [19]	> 10
KCL-22 [17]	> 10
KG-1 [16]	> 10
KU-812 [22]	> 10
LAMA-84	> 10
ML-2 [21]	> 10
MOLM-13 [15]	> 10
MV4-11	> 10
Mono-Mac-6 [24]	> 10
NOMO-1	> 10
SHI-1 [18]	> 10
THP-1 [25]	> 10

CCCCCN(C)CCC(O)(P(=O)(O)O)P(=O)(O)O [Ibandronate]
cell viability [%]
Conditions	1 nM	10 nM	100 nM	1000 nM	10000 nM
BV-173 [10]	94.6	96	94.4	120	122
HEL [7]	107	105	109	95.5	114
HL-60 [1]	92.4	111	103	90.5	142
K-562 [6]	113	92	81.9	102	101
KCL-22 [4]	107	105	95.1	99.8	112
KG-1 [3]	103	108	96.5	115	111
KU-812 [9]	88.2	90.9	89.9	110	105
ML-2 [8]	94	110	97.2	114	112
MOLM-13 [2]	84.4	110	111	100	117
Mono-Mac-6 [11]	93.1	98.3	90	103	115
SHI-1 [5]	108	108	103	98	107
THP-1 [12]	94.7	102	103	113	115

cell viability [%], HL-60 [13]
Conditions	0.001 µM	0.01 µM	0.1 µM	1 µM	10 µM
co-treatment: AZD3965 100 nM	101	90.6	108.2	94.15	99.33
co-treatment: DMSO vehicle	101	99.4	104	99.1	106
co-treatment: GSK2194069 100 nM	98.3	98.1	104	94.4	99
co-treatment: pictilisib 100 nM	103	87.2	101	94.3	99.9

Conditions	IC50 (cell viability) [µM]
BV-173 [23]	> 10
HEL [20]	> 10
HL-60 [14]	> 10
K-562 [19]	> 10
KCL-22 [17]	> 10
KG-1 [16]	> 10
KU-812 [22]	> 10
LAMA-84	> 10
ML-2 [21]	> 10
MOLM-13 [15]	> 10
MV4-11	> 10
Mono-Mac-6 [24]	> 10
NOMO-1	> 10
SHI-1 [18]	> 10
THP-1 [25]	> 10

Cc1cc(C(=O)NNCc2ccccc2)no1 [Isocarboxazid]
cell viability [%]
Conditions	1 nM	10 nM	100 nM	1000 nM	10000 nM
BV-173 [10]	99.1	101	100	117	80.7
HEL [7]	112	87.8	111	92.6	103
HL-60 [1]	107	90.1	106	122	102
K-562 [6]	116	91.5	88.5	99.6	107
KCL-22 [4]	105	91.3	94.3	98.3	65.6
KG-1 [3]	96.5	109	98.5	108	91.1
KU-812 [9]	96.2	99.6	93.8	93.9	100
ML-2 [8]	95	101	101	90.4	85.4
MOLM-13 [2]	104	96.3	103	106	96.6
Mono-Mac-6 [11]	94.1	102	104	107	80.8
SHI-1 [5]	101	99.9	98.4	99.1	95.2
THP-1 [12]	97.8	102	110	97.4	86.7

cell viability [%], HL-60 [13]
Conditions	0.001 µM	0.01 µM	0.1 µM	1 µM	10 µM
co-treatment: AZD3965 100 nM	103	103	94.9	99.03	101
co-treatment: DMSO vehicle	102	101	96.3	99.7	100
co-treatment: GSK2194069 100 nM	101	102	87	102	98.2
co-treatment: pictilisib 100 nM	102	96.8	86.6	103	90

Conditions	IC50 (cell viability) [µM]
BV-173 [23]	> 10
HEL [20]	> 10
HL-60 [14]	> 10
K-562 [19]	> 10
KCL-22 [17]	> 10
KG-1 [16]	> 10
KU-812 [22]	> 10
LAMA-84	> 10
ML-2 [21]	> 10
MOLM-13 [15]	> 10
MV4-11	> 10
Mono-Mac-6 [24]	> 10
NOMO-1	> 10
SHI-1 [18]	> 10
THP-1 [25]	> 10

CCn1c(=Cc2cccc[n+]2CC)sc(=C2Sc3ccccc3N2C)c1=O [MKT 077]
cell viability [%]
Conditions	1 nM	10 nM	100 nM	1000 nM	10000 nM
BV-173 [10]	107	108	102	95.2	83.4
HEL [7]	117	87	95.7	105	125
HL-60 [1]	101	84.5	101	136	2.97
K-562 [6]	109	88.1	103	108	1.35
KCL-22 [4]	106	98.5	90	103	107
KG-1 [3]	99	103	138	102	79.3
KU-812 [9]	101	103	107	98.3	61.8
ML-2 [8]	91.7	98	106	102	101
MOLM-13 [2]	115	108	119	115	0.148
Mono-Mac-6 [11]	100	110	112	102	87.8
SHI-1 [5]	95.9	98.7	97.3	98.8	2.85
THP-1 [12]	99.6	105	108	98.2	86.1

cell viability [%], HL-60 [13]
Conditions	0.001 µM	0.01 µM	0.1 µM	1 µM	10 µM
co-treatment: AZD3965 100 nM	95.2	102	97.3	88.22	97.7
co-treatment: DMSO vehicle	102	105	97.35	100.14	106
co-treatment: GSK2194069 100 nM	92	104	96	76.1	73.5
co-treatment: pictilisib 100 nM	95.6	113.3	99.2	93.3	110

Conditions	IC50 (cell viability) [µM]
BV-173 [23]	> 10
HEL [20]	> 10
HL-60 [14]	4.45
K-562 [19]	3.59
KCL-22 [17]	> 10
KG-1 [16]	> 10
KU-812 [22]	> 10
LAMA-84	> 10
ML-2 [21]	> 10
MOLM-13 [15]	3.76
MV4-11	3.37
Mono-Mac-6 [24]	> 10
NOMO-1	> 10
SHI-1 [18]	3.28
THP-1 [25]	> 10
